Measurements taken from PubChem BioAssay AID1963966 (Molecular Pharmacology Branch, DTP, NCI, 2024).

System: 935938-334-R-J1-PDC spheroids with HUVEC/MSC, viability
Assay: Anticancer human tumor 935938-334-R-J1-PDC patient-derived small intestine adenocarcinoma cell line growth inhibition [PI3K]
Conditions: for IC50: curve of first compound; for viability, T/C: stronger effect = lower value
In short: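 Stroma-containing spheroids: tumor line, pooled-donor HUVEC, hMSC. Treatments: targeted agents with PI3K inhibitors. Dosing: clinically relevant, half-log spacing, 10 microM ceiling without known Cmax. Read-out: cell viability.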

[1] = second compound 0.00316 µM, first compound 0.0316 µM
[2] = second compound 0.00316 µM, first compound 0.1 µM
[3] = second compound 0.00316 µM, first compound 0.316 µM
[4] = second compound 0.00316 µM, first compound 1 µM
[5] = second compound 0.00316 µM, first compound 3.16 µM
[6] = second compound 0.00316 µM, first compound 10 µM
[7] = second compound 0.01 µM, first compound 0.0316 µM
[8] = second compound 0.01 µM, first compound 0.1 µM
[9] = second compound 0.01 µM, first compound 0.316 µM
[10] = second compound 0.01 µM, first compound 1 µM
[11] = second compound 0.01 µM, first compound 3.16 µM
[12] = second compound 0.01 µM, first compound 10 µM
[13] = second compound 0.0316 µM, first compound 0.0316 µM
[14] = second compound 0.0316 µM, first compound 0.1 µM
[15] = second compound 0.0316 µM, first compound 0.316 µM
[16] = second compound 0.0316 µM, first compound 1 µM
[17] = second compound 0.0316 µM, first compound 3.16 µM
[18] = second compound 0.0316 µM, first compound 10 µM
[19] = second compound 0.1 µM, first compound 0.0316 µM
[20] = second compound 0.1 µM, first compound 0.1 µM
[21] = second compound 0.1 µM, first compound 0.316 µM
[22] = second compound 0.1 µM, first compound 1 µM
[23] = second compound 0.1 µM, first compound 3.16 µM
[24] = second compound 0.1 µM, first compound 10 µM
[25] = second compound 0.316 µM, first compound 0.0316 µM
[26] = second compound 0.316 µM, first compound 0.1 µM
[27] = second compound 0.316 µM, first compound 0.316 µM
[28] = second compound 0.316 µM, first compound 1 µM
[29] = second compound 0.316 µM, first compound 3.16 µM
[30] = second compound 0.316 µM, first compound 10 µM
[31] = second compound 1 µM, first compound 0.0316 µM
[32] = second compound 1 µM, first compound 0.1 µM
[33] = second compound 1 µM, first compound 0.316 µM
[34] = second compound 1 µM, first compound 1 µM
[35] = second compound 1 µM, first compound 3.16 µM
[36] = second compound 1 µM, first compound 10 µM
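Note: compound exposure lasted seven days before viability was read.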
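Throughout, for viability, T/C: percent of vehicle DMSO treated spheroid viability so 100% = untreated.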

`C#Cc1c(F)ccc2cc(O)cc(-c3ncc4c(N5CC6CCC(C5)N6)nc(OCC56CCCN5CC(F)C6)nc4c3F)c12` (stereo not drawn) + CC(Nc1ccc2c(c1)OCCn1cc(N3C(=O)OCC3C(F)F)nc1-2)C(N)=O was tested, and the IC50 (second compound 0.00316 µM) was 3.79 µM, the IC50 (second compound 0.01 µM) was 3.11 µM and the IC50 (second compound 0.0316 µM) was 1.87 µM. It also gave an IC50 (second compound 0.1 µM) of 0.922 µM, an IC50 (second compound 0.316 µM) of 0.513 µM and an IC50 (second compound 1 µM) of 0.102 µM. For the same compound, the viability, T/C [1] was 86.7%, the viability, T/C [2] was 88.4% and the viability, T/C [3] was 76%. For the same compound, the viability, T/C [4] was 67.9%, the viability, T/C [5] was 52.8% and the viability, T/C [6] was 36.1%. The viability, T/C [7] was 106%, the viability, T/C [8] was 74% and the viability, T/C [9] was 80.1%. It also gave a viability, T/C [10] of 69.1%, a viability, T/C [11] of 52% and a viability, T/C [12] of 31.1%. For the same compound, the viability, T/C [13] was 94.7%, the viability, T/C [14] was 80.1% and the viability, T/C [15] was 83.2%. For the same compound, the viability, T/C [16] was 61.3%, the viability, T/C [17] was 39.7% and the viability, T/C [18] was 28.8%. It also gave a viability, T/C [19] of 89.1%, a viability, T/C [20] of 84.1% and a viability, T/C [21] of 47.5%. It also gave a viability, T/C [22] of 56.7%, a viability, T/C [23] of 39.7% and a viability, T/C [24] of 28.2%. The viability, T/C [25] was 67.6%, the viability, T/C [26] was 71% and the viability, T/C [27] was 60.7%. For the same compound, the viability, T/C [28] was 34.7%, the viability, T/C [29] was 31.3% and the viability, T/C [30] was 22.8%. It also gave a viability, T/C [31] of 49.5%, a viability, T/C [32] of 51.2% and a viability, T/C [33] of 47.5%. It also gave a viability, T/C [34] of 35.2%, a viability, T/C [35] of 25% and a viability, T/C [36] of 17.2%.
In the case of `C=CC(=O)N1CCN(c2nc(=O)n(-c3c(C)ccnc3C(C)C)c3nc(-c4c(O)cccc4F)c(F)cc23)C(C)C1` (stereo not drawn) + CC(Nc1ccc2c(c1)OCCn1cc(N3C(=O)OCC3C(F)F)nc1-2)C(N)=O, the IC50 (second compound 0.00316 µM) is reported as > 10 µM, the IC50 (second compound 0.01 µM) is reported as > 10 µM and the IC50 (second compound 0.0316 µM) is reported as > 10 µM. The IC50 (second compound 0.1 µM) was > 10 µM, the IC50 (second compound 0.316 µM) was > 10 µM and the IC50 (second compound 1 µM) was 8.04 µM. The viability, T/C [1] was 101%, the viability, T/C [2] was 99.6% and the viability, T/C [3] was 103%. The viability, T/C [4] was 99.3%, the viability, T/C [5] was 91% and the viability, T/C [6] was 106%. The viability, T/C [7] was 96.9%, the viability, T/C [8] was 85% and the viability, T/C [9] was 90.4%. The viability, T/C [10] was 87.9%, the viability, T/C [11] was 92.5% and the viability, T/C [12] was 98.2%. For the same compound, the viability, T/C [13] was 134%, the viability, T/C [14] was 119% and the viability, T/C [15] was 101%. For the same compound, the viability, T/C [16] was 86%, the viability, T/C [17] was 85.8% and the viability, T/C [18] was 93.3%. For the same compound, the viability, T/C [19] was 88.4%, the viability, T/C [20] was 84.4% and the viability, T/C [21] was 98.3%. It also gave a viability, T/C [22] of 104%, a viability, T/C [23] of 89.5% and a viability, T/C [24] of 97.7%. For the same compound, the viability, T/C [25] was 80.9%, the viability, T/C [26] was 80.5% and the viability, T/C [27] was 71%. For the same compound, the viability, T/C [28] was 74.2%, the viability, T/C [29] was 72.5% and the viability, T/C [30] was 68.1%. The viability, T/C [31] was 86%, the viability, T/C [32] was 67.6% and the viability, T/C [33] was 66.3%. For the same compound, the viability, T/C [34] was 80.3%, the viability, T/C [35] was 86.9% and the viability, T/C [36] was 43.5%.
`CC(Cn1ccc(-c2ccc(C#N)c(Cl)c2)n1)NC(=O)c1cc(C(C)O)[nH]n1` (stereo not drawn) + CC(Nc1ccc2c(c1)OCCn1cc(N3C(=O)OCC3C(F)F)nc1-2)C(N)=O was tested, and the IC50 (second compound 0.00316 µM) was > 10 µM, the IC50 (second compound 0.01 µM) was > 10 µM and the IC50 (second compound 0.0316 µM) was > 10 µM. The IC50 (second compound 0.1 µM) was 8.81 µM, the IC50 (second compound 0.316 µM) was 7.05 µM and the IC50 (second compound 1 µM) was 4.18 µM. For the same compound, the viability, T/C [1] was 66.3%, the viability, T/C [2] was 106% and the viability, T/C [3] was 91.7%. For the same compound, the viability, T/C [4] was 82.5%, the viability, T/C [5] was 105% and the viability, T/C [6] was 53.2%. The viability, T/C [7] was 89%, the viability, T/C [8] was 72.4% and the viability, T/C [9] was 97.3%. It also gave a viability, T/C [10] of 119%, a viability, T/C [11] of 96.7% and a viability, T/C [12] of 56.6%. For the same compound, the viability, T/C [13] was 78.5%, the viability, T/C [14] was 89.6% and the viability, T/C [15] was 96.6%. For the same compound, the viability, T/C [16] was 94.1%, the viability, T/C [17] was 90.5% and the viability, T/C [18] was 59.9%. The viability, T/C [19] was 61.6%, the viability, T/C [20] was 60.9% and the viability, T/C [21] was 83.8%. It also gave a viability, T/C [22] of 105%, a viability, T/C [23] of 84.9% and a viability, T/C [24] of 46.4%. The viability, T/C [25] was 96.7%, the viability, T/C [26] was 81.7% and the viability, T/C [27] was 68.2%. It also gave a viability, T/C [28] of 82.4%, a viability, T/C [29] of 75.3% and a viability, T/C [30] of 39.2%. For the same compound, the viability, T/C [31] was 64.9%, the viability, T/C [32] was 43% and the viability, T/C [33] was 83.7%. The viability, T/C [34] was 75.5%, the viability, T/C [35] was 49.6% and the viability, T/C [36] was 29%.
For `CC1(C)CCC(Nc2ncc(C(F)(F)F)c(-c3c[nH]c4c(P(C)(C)=O)c(C#N)ccc34)n2)CN1` (stereo not drawn) + CC(Nc1ccc2c(c1)OCCn1cc(N3C(=O)OCC3C(F)F)nc1-2)C(N)=O, the IC50 (second compound 0.00316 µM) was < 0.0316 µM, the IC50 (second compound 0.01 µM) was < 0.0316 µM and the IC50 (second compound 0.0316 µM) was < 0.0316 µM. For the same compound, the IC50 (second compound 0.1 µM) was < 0.0316 µM, the IC50 (second compound 0.316 µM) was < 0.0316 µM and the IC50 (second compound 1 µM) was < 0.0316 µM. It also gave a viability, T/C [1] of 46.2%, a viability, T/C [2] of 35% and a viability, T/C [3] of 29.9%. The viability, T/C [4] was 33.8%, the viability, T/C [5] was 25.8% and the viability, T/C [6] was 7.62%. The viability, T/C [7] was 42.7%, the viability, T/C [8] was 36.3% and the viability, T/C [9] was 27.2%. It also gave a viability, T/C [10] of 28.6%, a viability, T/C [11] of 30.4% and a viability, T/C [12] of 5.01%. For the same compound, the viability, T/C [13] was 42.5%, the viability, T/C [14] was 40.5% and the viability, T/C [15] was 33.8%. It also gave a viability, T/C [16] of 27.1%, a viability, T/C [17] of 35.5% and a viability, T/C [18] of 6.2%. It also gave a viability, T/C [19] of 36.8%, a viability, T/C [20] of 39.5% and a viability, T/C [21] of 30%. For the same compound, the viability, T/C [22] was 29.6%, the viability, T/C [23] was 31.3% and the viability, T/C [24] was 4.61%. The viability, T/C [25] was 37.5%, the viability, T/C [26] was 29.5% and the viability, T/C [27] was 27.2%. The viability, T/C [28] was 29.2%, the viability, T/C [29] was 23.1% and the viability, T/C [30] was 6.76%. For the same compound, the viability, T/C [31] was 29.5%, the viability, T/C [32] was 24% and the viability, T/C [33] was 24.7%. For the same compound, the viability, T/C [34] was 22.9%, the viability, T/C [35] was 18.3% and the viability, T/C [36] was 3.56%.
